From ChEMBL document CHEMBL1128320 (J Med Chem, 1995)

Legend:
[1] = molecular target: T1, Steroid 17-alpha-hydroxylase/17,20 lyase (Homo sapiens, UniProt P05093)
T1 sequence (P05093 whole entry): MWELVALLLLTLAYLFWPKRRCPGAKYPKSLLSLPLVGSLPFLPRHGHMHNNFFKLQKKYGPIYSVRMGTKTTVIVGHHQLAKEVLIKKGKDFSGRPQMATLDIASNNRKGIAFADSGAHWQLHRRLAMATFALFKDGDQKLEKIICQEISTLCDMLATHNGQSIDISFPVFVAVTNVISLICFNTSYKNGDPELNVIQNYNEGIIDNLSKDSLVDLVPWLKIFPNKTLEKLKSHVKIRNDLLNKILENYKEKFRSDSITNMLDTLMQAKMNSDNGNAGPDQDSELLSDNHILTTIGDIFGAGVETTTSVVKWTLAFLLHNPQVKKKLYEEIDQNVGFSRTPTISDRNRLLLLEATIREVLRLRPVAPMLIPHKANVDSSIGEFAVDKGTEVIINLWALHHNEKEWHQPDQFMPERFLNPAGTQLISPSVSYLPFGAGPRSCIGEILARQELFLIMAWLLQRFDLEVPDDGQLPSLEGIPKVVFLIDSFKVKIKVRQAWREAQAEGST

[2] = molecular target: T1, Steroid 17-alpha-hydroxylase/17,20 lyase; remark: listed apart in the source
[3] = system: esterase; assay: in vitro; details: rat, in vivo
Description: Hydrolysis rate by rat liver microsomal esterase

[4] = molecular target: T2, Steroid 17-alpha-hydroxylase/17,20 lyase (Rattus norvegicus, UniProt P11715)
T2 sequence (P11715 whole entry): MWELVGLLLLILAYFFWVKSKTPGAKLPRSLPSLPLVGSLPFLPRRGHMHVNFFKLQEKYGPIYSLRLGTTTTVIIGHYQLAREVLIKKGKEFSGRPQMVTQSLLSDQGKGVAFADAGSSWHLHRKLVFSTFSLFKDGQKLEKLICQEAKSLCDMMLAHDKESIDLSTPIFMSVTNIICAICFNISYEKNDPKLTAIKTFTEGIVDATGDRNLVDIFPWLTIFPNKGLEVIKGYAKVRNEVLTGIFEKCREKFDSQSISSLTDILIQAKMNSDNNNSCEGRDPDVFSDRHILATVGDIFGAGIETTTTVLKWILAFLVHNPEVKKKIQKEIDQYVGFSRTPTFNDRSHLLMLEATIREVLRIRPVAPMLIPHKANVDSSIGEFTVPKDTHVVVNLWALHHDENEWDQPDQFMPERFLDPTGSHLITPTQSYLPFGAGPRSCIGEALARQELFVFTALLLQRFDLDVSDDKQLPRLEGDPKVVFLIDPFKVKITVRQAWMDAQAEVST

[5] = molecular target: T2, Steroid 17-alpha-hydroxylase/17,20 lyase; remark: listed apart in the source

Row | IC50 [1] | IC50 [2] | half-life [3] | IC50 [4] | IC50 [5] | Compound
1 | 14 nM | 82 nM | 50 min | – | – | CC(C(=O)OC1CC2CC([C@@H]1C)C2(C)C)c1cccnc1 (stereo not given in full)
2 | 13 nM | 75 nM | – | – | – | CC(C)(C(=O)OC1(C)C2CC3CC(C2)CC1C3)c1cccnc1 (stereo not given)
3 | 13 nM | 90 nM | – | – | – | CC(C)(C(=O)OC12CC3CC(CC(C3)C1)C2)c1cccnc1
4 | 9 nM | 34 nM | 88 min | – | – | CCC(C(=O)OC1CC2CC([C@@H]1C)C2(C)C)c1ccncc1 (stereo not given in full)
5 | 15 nM | 29 nM | – | 52 nM | 47 nM | C[C@@H]1C(OC(=O)C(C)(C)c2cccnc2)CC2CC1C2(C)C (stereo not given in full)
6 | 6 nM | 19 nM | 100 min | – | – | CC(C(=O)OC1CC2CC([C@@H]1C)C2(C)C)c1ccncc1 (stereo not given in full)
7 | > 1000 nM | > 1000 nM | – | – | – | C[C@@H]1C(OC(=O)Cc2ccccn2)CC2CC1C2(C)C (stereo not given in full)
8 | 52 nM | 270 nM | – | – | – | C[C@@H]1CCC2C(C)(C)C3CC21CC[C@@]3(C)OC(=O)Cc1ccncc1 (stereo not given in full)
9 | 320 nM | 1900 nM | – | – | – | CC1(OC(=O)Cc2cccnc2)C2CC3CC(C2)CC1C3 (stereo not given)
10 | 35 nM | 220 nM | – | – | – | CC(C(=O)OC12CC3CC(CC(C3)C1)C2)c1cccnc1 (stereo not given)
11 | 10 nM | 26 nM | – | – | – | C[C@@H]1C(OC(=O)C(C)(C)c2ccncc2)CC2CC1C2(C)C (stereo not given in full)
12 | 5 nM | 14 nM | 17.5 min | 280 nM | 260 nM | C[C@@H]1C(OC(=O)Cc2ccncc2)CC2CC1C2(C)C (stereo not given in full)
13 | 35 nM | 140 nM | – | – | – | CCC(CC)(C(=O)OC1CC2CC([C@@H]1C)C2(C)C)c1ccncc1 (stereo not given in full)
14 | 130 nM | 930 nM | – | – | – | O=C(Cc1cccnc1)OC12CC3CC(CC(C3)C1)C2
15 | 670 nM | 4000 nM | – | – | – | C[C@@H]1CCC2C(C)(C)C3CC21CC[C@@]3(C)OC(=O)C(C)(C)c1cccnc1 (stereo not given in full)
16 | 38 nM | 230 nM | – | – | – | C[C@@H]1CCC2C(C)(C)C3CC21CC[C@@]3(C)OC(=O)Cc1cccnc1 (stereo not given in full)
17 | 88 nM | 260 nM | 16 min | 520 nM | 460 nM | C[C@@H]1C(OC(=O)Cc2cccnc2)CC2CC1C2(C)C (stereo not given in full)
